Data from publication PMC3933419, “Synthesis and Properties of a Selective Inhibitor of Homeodomain–Interacting Protein Kinase 2 (HIPK2)” (PLoS ONE, 2014).

Legend:
Experiment in all cases: Kinase panel selectivity profiling
Type in all cases: biochemical
Settings in all cases: TBID 1 μM, 125 kinase panel, read-out: % activity of the enzyme
MEKK1 = MEKK1 (Homo sapiens, UniProt Q13233)
Description: (§1) The source of HIPK2 and of all of the other protein kinases used for specificity assays is as described elsewhere.
(§2) Conditions for the activity assays of all other protein kinases tested in selectivity experiments are as described or referenced in [9].

p38g MAPK = p38g MAPK (Homo sapiens, UniProt P53778)
Description: as §1, §2

PKBa = PKBa (Homo sapiens, UniProt P31749)
Description: as §1, §2

MKK6 = MKK6 (Homo sapiens, UniProt P52564)
Description: as §1, §2

IKKe = IKKe (Homo sapiens, UniProt Q14164)
Description: as §1, §2

ROCK 2 = ROCK 2 (Homo sapiens, UniProt O75116)
ROCK 2, sequence (O75116 whole entry): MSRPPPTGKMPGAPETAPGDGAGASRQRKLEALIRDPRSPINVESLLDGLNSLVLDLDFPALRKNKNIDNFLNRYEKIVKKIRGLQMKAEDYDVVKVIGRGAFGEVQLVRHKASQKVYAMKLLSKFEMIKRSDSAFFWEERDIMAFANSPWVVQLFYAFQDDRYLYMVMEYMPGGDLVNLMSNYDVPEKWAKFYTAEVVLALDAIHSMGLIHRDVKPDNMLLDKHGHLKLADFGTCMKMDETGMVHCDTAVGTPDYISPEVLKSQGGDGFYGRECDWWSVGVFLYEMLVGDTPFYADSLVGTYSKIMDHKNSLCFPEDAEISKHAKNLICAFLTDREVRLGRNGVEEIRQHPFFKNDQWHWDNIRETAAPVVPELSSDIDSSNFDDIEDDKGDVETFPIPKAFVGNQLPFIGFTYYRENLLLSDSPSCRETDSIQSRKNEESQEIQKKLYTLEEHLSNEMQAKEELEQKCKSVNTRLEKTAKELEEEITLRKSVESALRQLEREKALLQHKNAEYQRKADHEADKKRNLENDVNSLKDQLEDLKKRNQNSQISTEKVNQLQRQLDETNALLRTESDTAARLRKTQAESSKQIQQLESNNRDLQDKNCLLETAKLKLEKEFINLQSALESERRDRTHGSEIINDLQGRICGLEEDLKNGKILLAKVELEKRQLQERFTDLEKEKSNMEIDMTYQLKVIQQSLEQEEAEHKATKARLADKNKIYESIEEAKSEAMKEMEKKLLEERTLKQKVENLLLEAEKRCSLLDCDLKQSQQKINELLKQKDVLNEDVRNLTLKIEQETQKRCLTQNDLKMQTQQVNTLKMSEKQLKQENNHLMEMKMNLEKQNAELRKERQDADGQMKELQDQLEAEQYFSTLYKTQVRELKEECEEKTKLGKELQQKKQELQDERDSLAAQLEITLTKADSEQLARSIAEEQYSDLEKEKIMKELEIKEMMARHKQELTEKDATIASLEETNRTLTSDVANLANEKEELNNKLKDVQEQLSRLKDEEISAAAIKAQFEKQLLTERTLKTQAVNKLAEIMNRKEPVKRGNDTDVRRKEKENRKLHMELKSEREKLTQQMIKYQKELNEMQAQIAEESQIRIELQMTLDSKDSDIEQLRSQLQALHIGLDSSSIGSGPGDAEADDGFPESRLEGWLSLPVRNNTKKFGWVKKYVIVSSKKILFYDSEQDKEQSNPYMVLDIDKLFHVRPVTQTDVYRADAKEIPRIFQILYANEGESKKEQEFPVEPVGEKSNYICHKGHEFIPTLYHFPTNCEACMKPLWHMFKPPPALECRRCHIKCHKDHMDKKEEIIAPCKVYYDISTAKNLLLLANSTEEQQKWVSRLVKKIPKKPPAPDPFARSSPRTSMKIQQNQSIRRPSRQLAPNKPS
Description: as §1, §2

p38d MAPK = p38d MAPK (Homo sapiens, UniProt O15264)
Description: as §1, §2

TIE2 = TIE2 (Homo sapiens, UniProt Q02763)
Description: as §1, §2

SmMLCK = SmMLCK (Homo sapiens, UniProt Q15746)
Description: as §1, §2

TTK = TTK (Homo sapiens, UniProt P33981)
Description: as §1, §2

S6K1 = S6K1 (Homo sapiens, UniProt P23443)
Description: as §1, §2

ABL = ABL (Homo sapiens, UniProt P00519)
Description: as §1, §2

STK33 = STK33 (Homo sapiens, UniProt Q9BYT3)
Description: as §1, §2

PRK2 = PRK2 (Homo sapiens, UniProt Q16513)
Description: as §1, §2

GSK3b = GSK3b (Homo sapiens, UniProt P49841)
Description: as §1, §2

CSK = CSK (Homo sapiens, UniProt P41240)
Description: as §1, §2

MAPKAP-K2 = MAPKAP-K2 (Homo sapiens, UniProt P49137)
Description: as §1, §2

PDK1 = PDK1 (Homo sapiens, UniProt O15530)
Description: as §1, §2

FGF-R1 = FGF-R1 (Homo sapiens, UniProt P11362)
FGF-R1, sequence (P11362 22-822): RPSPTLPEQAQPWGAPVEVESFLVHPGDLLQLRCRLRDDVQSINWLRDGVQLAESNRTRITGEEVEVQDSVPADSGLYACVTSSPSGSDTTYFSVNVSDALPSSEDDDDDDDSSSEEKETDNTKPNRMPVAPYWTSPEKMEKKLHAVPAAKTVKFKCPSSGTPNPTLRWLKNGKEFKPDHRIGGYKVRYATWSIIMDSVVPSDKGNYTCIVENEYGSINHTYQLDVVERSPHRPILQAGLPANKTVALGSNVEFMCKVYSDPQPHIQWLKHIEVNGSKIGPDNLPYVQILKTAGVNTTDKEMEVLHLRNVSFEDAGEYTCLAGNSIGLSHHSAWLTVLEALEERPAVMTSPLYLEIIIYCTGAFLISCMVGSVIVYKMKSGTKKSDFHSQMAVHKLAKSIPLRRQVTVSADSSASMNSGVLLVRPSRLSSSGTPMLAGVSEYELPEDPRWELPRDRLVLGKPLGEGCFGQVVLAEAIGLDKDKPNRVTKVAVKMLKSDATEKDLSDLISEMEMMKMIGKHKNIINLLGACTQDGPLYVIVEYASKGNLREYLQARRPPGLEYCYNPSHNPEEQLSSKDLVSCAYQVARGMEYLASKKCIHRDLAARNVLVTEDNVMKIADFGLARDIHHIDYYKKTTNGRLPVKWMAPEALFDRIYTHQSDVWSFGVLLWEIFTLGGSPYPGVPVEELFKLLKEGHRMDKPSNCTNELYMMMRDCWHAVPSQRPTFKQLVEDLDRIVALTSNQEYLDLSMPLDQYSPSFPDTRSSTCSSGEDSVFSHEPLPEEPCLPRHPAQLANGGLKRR
Description: as §1, §2

SYK = SYK (Homo sapiens, UniProt P43405)
Description: as §1, §2

MNK1 = MNK1 (Homo sapiens, UniProt Q9BUB5)
Description: as §1, §2

MSK1 = MSK1 (Homo sapiens, UniProt O75582)
MSK1, sequence (O75582 whole entry): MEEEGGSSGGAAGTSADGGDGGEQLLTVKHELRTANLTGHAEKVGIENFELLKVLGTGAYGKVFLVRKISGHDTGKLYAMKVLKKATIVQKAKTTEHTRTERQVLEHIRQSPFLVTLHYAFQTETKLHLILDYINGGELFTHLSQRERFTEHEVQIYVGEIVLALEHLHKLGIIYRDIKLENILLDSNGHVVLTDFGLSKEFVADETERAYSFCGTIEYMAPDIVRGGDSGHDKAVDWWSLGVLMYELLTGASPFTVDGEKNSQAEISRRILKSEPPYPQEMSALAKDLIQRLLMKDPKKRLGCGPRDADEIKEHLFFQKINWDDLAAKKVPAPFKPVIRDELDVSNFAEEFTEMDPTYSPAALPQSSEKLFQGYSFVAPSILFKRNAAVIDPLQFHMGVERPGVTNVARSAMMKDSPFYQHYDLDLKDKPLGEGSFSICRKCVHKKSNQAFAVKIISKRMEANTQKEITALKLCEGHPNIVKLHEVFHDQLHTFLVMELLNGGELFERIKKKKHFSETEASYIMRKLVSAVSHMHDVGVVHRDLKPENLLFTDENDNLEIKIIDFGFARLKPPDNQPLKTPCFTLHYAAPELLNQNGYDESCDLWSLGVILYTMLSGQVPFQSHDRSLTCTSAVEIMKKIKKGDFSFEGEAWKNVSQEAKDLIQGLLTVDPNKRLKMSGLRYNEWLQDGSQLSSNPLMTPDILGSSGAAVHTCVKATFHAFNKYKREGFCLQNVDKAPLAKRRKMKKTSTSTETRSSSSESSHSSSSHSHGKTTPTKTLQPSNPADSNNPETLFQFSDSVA
Description: as §1, §2

MARK1 = MARK1 (Homo sapiens, UniProt Q9P0L2)
Description: as §1, §2

SGK1 = SGK1 (Homo sapiens, UniProt O00141)
Description: as §1, §2

EIF2AK3 = EIF2AK3 (Homo sapiens, UniProt Q9NZJ5)
EIF2AK3, sequence (Q9NZJ5 30-1116): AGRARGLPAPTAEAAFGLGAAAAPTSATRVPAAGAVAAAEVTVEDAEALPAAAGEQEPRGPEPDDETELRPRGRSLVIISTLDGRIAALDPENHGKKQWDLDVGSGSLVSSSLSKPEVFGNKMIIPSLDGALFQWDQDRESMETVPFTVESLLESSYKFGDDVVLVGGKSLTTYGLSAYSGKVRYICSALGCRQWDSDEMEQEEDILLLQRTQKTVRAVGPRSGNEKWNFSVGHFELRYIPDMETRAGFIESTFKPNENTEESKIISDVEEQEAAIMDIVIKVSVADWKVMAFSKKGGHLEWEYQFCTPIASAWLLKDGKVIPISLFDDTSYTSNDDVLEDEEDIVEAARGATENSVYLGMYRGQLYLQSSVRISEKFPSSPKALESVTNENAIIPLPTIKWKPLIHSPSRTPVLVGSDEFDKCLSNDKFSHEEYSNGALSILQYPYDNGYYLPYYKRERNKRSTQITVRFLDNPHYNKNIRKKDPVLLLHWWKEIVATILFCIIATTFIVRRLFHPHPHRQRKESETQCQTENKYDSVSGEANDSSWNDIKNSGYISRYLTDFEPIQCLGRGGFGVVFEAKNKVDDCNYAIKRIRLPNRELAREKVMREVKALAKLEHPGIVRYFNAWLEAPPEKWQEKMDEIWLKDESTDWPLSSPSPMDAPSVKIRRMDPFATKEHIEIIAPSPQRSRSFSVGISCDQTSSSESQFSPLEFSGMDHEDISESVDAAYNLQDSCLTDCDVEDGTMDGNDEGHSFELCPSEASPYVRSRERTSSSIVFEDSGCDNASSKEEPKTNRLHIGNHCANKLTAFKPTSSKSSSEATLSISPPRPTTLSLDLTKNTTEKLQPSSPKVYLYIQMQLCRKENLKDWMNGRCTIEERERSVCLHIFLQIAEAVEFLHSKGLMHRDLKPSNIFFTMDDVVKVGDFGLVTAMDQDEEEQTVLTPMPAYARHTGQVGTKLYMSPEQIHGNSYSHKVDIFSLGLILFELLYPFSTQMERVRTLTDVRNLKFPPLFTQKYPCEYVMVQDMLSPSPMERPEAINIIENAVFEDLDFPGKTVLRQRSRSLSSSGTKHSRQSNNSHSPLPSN
Description: as §1, §2

TTBK1 = TTBK1 (Homo sapiens, UniProt Q5TCY1)
Description: as §1, §2

JNK2 = JNK2 (Homo sapiens, UniProt P45984)
Description: as §1, §2

RSK2 = RSK2 (Homo sapiens, UniProt P51812)
Description: as §1, §2

CHK1 = CHK1 (Homo sapiens, UniProt O14757)
Description: as §1, §2

YES1 = YES1 (Homo sapiens, UniProt P07947)
Description: as §1, §2

EPH-A2 = EPH-A2 (Homo sapiens, UniProt P29317)
Description: as §1, §2

IRAK1 = IRAK1 (Homo sapiens, UniProt P51617)
Description: as §1, §2

CHK2 = CHK2 (Homo sapiens, UniProt O96017)
Description: as §1, §2

DYRK3 = DYRK3 (Homo sapiens, UniProt O43781)
Description: as §1, §2

CDK2-Cyclin A = CDK2-Cyclin A (Homo sapiens, UniProt P24941)
Description: as §1, §2

RIPK2 = RIPK2 (Homo sapiens, UniProt O43353)
Description: as §1, §2

JAK2 = JAK2 (Homo sapiens, UniProt O60674)
Description: as §1, §2

ERK2 = ERK2 (Homo sapiens, UniProt P28482)
Description: as §1, §2

PKD1 = PKD1 (Homo sapiens, UniProt Q15139)
PKD1, sequence (Q15139 whole entry): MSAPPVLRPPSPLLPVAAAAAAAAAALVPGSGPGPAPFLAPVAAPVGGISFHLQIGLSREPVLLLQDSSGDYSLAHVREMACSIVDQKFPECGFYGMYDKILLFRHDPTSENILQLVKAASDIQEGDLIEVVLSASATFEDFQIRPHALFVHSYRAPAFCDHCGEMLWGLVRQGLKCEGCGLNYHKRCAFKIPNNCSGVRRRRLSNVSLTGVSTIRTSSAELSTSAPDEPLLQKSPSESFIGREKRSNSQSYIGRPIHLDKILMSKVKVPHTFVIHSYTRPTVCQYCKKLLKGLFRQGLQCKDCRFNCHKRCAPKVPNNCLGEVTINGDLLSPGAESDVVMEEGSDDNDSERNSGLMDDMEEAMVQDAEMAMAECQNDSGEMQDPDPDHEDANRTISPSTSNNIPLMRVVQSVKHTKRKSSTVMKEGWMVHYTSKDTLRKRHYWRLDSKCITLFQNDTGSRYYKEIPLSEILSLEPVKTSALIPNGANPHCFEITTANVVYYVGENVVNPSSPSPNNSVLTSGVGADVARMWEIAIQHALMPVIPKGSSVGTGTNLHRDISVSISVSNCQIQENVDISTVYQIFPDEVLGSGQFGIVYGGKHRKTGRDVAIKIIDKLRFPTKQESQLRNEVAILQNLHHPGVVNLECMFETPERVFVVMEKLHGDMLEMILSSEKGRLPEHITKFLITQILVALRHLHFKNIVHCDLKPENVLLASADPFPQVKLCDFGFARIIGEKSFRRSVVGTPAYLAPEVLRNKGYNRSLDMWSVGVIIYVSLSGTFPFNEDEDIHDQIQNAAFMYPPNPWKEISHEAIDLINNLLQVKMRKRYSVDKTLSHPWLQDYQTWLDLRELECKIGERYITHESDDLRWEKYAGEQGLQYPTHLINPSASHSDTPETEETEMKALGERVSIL
Description: as §1, §2

CAMK1 = CAMK1 (Homo sapiens, UniProt Q14012)
Description: as §1, §2

BRSK1 = BRSK1 (Homo sapiens, UniProt Q8TDC3)
Description: as §1, §2

ASK1 = ASK1 (Homo sapiens, UniProt Q99683)
Description: as §1, §2

EPH-B3 = EPH-B3 (Homo sapiens, UniProt P54753)
Description: as §1, §2

Structure (SMILES): O=C1c2c(Br)c(Br)c(Br)c(Br)c2C(=O)N1c1ncc[nH]1 [TBID, 4,5,6,7-Tetrabromo-2-(1H-imidazol-2-yl)isoindoline-1,3-dione]
- activity at 1 µM (MEKK1): 106%
- activity at 1 µM (p38g MAPK): 101%
- activity at 1 µM (PKBa): 104%
- activity at 1 µM (MKK6): 90%
- activity at 1 µM (IKKe): 85%
- activity at 1 µM (ROCK 2): 117%
- activity at 1 µM (p38d MAPK): 106%
- activity at 1 µM (TIE2): 115%
- activity at 1 µM (SmMLCK): 103%
- activity at 1 µM (TTK): 92%
- activity at 1 µM (S6K1): 94%
- activity at 1 µM (ABL): 99%
- activity at 1 µM (STK33): 111%
- activity at 1 µM (PRK2): 96%
- activity at 1 µM (GSK3b): 94%
- activity at 1 µM (CSK): 89%
- activity at 1 µM (MAPKAP-K2): 119%
- activity at 1 µM (PDK1): 97%
- activity at 1 µM (FGF-R1): 104%
- activity at 1 µM (SYK): 108%
- activity at 1 µM (MNK1): 106%
- activity at 1 µM (MSK1): 89%
- activity at 1 µM (MARK1): 102%
- activity at 1 µM (SGK1): 98%
- activity at 1 µM (EIF2AK3): 107%
- activity at 1 µM (TTBK1): 113%
- activity at 1 µM (JNK2): 110%
- activity at 1 µM (RSK2): 101%
- activity at 1 µM (CHK1): 102%
- activity at 1 µM (YES1): 110%
- activity at 1 µM (EPH-A2): 89%
- activity at 1 µM (IRAK1): 82%
- activity at 1 µM (CHK2): 100%
- activity at 1 µM (DYRK3): 101%
- activity at 1 µM (CDK2-Cyclin A): 98%
- activity at 1 µM (RIPK2): 102%
- activity at 1 µM (JAK2): 114%
- activity at 1 µM (ERK2): 91%
- activity at 1 µM (PKD1): 98%
- activity at 1 µM (CAMK1): 78%
- activity at 1 µM (BRSK1): 110%
- activity at 1 µM (ASK1): 126%
- activity at 1 µM (EPH-B3): 103%
